From ChEMBL document CHEMBL4342522 (J Med Chem, 2020)

Experiments:
[1] = target: T1, Bromodomain-containing protein 4 (Homo sapiens, UniProt O60885); experiment: biochemical; format: cell-based
Description: Inhibition of human N-terminal His6 tagged BRD4 BD1 (57 to 168) residues expressed in Escherichia coli BL21(DE3) cells after 1 hr by TR-FRET assay

[2] = target: T1, Bromodomain-containing protein 4; experiment: Inhibition of human N-terminal His6 tagged BRD4 BD2 (352 to 457) residues expressed in Escherichia coli BL21(DE3) cells after 1 hr by TR-FRET assay
SKM-1 = experiment: Antiproliferative activity against human SKM1 cells assessed as reduction in cell viability after 5 days by CellTiter-Glo assay; format: functional, cell-based; conditions: SKM-1, 120 h
NCI-H1299 = experiment: Antiproliferative activity against human H1299 cells assessed as reduction in cell viability after 5 days by CellTiter-Glo assay; format: functional, cell-based; conditions: NCI-H1299, 120 h
[3] = Unbound hepatic clearance in human liver microsomes; format: ADME, Microsome
[4] = Unbound hepatic clearance in mouse liver microsomes; format: ADME, Microsome
[5] = Unbound hepatic clearance in rat liver microsomes; format: ADME, Microsome
[6] = Permeability in dog MDCK cells by PAMPA; format: ADME, cell-based, Canis lupus familiaris; conditions: read-out: permeability

| Structure (SMILES) | Ki [1] [µM] | Ki [2] [µM] | IC50 (SKM-1) [µM] | IC50 (NCI-H1299) [µM] | CL free [3] [L/h/kg] | CL free [4] [L/h/kg] | CL free [5] [L/h/kg] | Papp [6] [nm/s] |
| --- | --- | --- | --- | --- | --- | --- | --- | --- |
| CCNC(=O)c1cc2c(-c3cc(S(=O)(=O)CC)ccc3-c3ccccc3C)cn(C)c(=O)c2[nH]1 | 0.18 | 0.0011 | 0.0095 | 2.6 | 6.7 | 45 | 21 | 103 |
| Cc1cc(F)cc(C)c1Oc1ccc(C(C)(C)O)cc1-c1cn(C)c(=O)c2[nH]c(C(=O)NC(C)(C)C(F)(F)F)cc12 | – | – | 0.08 | 2.6 | 570 | 2800 | 1100 | 5.7 |
| CCNC(=O)c1cc2c(-c3cc(S(=O)(=O)CC)ccc3Oc3c(C)cccc3C(F)(F)F)cn(C)c(=O)c2[nH]1 | 0.47 | 0.0058 | 0.028 | 1.2 | 4.5 | 54 | 12 | 152 |
| CCNC(=O)c1cc2c(-c3cc(C4(O)CCC4)ccc3Oc3c(C)cc(F)cc3C)cn(C)c(=O)c2[nH]1 | 0.22 | 0.0015 | 0.026 | 2.2 | 350 | 940 | 380 | 15.6 |
| CCNC(=O)c1cc2c(-c3cc(S(C)(=O)=O)ccc3Oc3c(C)cccc3C)cn(C)c(=O)c2[nH]1 | 0.14 | 0.0012 | 0.011 to 0.012 | 0.79 | 5.5 | 33 | 39 | 107 |
| CCNC(=O)c1cc2c(-c3cc(S(C)(=O)=O)ccc3Oc3ccc(F)cc3F)cn(C)c(=O)c2[nH]1 | – | 0.0013 | 0.0066 | 0.37 | 3.6 | < 5.5 | < 3.1 | 108 |
| CCNC(=O)c1cc2c(-c3cc(S(=O)(=O)CC)ccc3-n3ccc4ccccc43)cn(C)c(=O)c2[nH]1 | 0.14 | 0.0018 | 0.05 | 1.3 | 27 | 130 | 38 | 159 |
| CCNC(=O)c1cc2c(-c3cc(C4(O)CCOCC4)ccc3Oc3c(C)cc(F)cc3C)cn(C)c(=O)c2[nH]1 | 0.3 | 0.0012 | 0.0067 | 2.1 | 520 | 100 | 49 | 14.7 |
| CCNC(=O)c1cc2c(-c3cc(S(=O)(=O)CC)ccc3Oc3cc(C)cc(C)c3)cn(C)c(=O)c2[nH]1 | 0.0083 | 0.0007 | 0.0026 | 0.094 | 32 | 96 | 97 | 31 |
| CCNC(=O)c1cc2c(-c3cc(S(=O)(=O)CC)ccc3-c3cccc4cc[nH]c34)cn(C)c(=O)c2[nH]1 | 0.17 | 0.0009 | 0.034 | 3.9 | 8.4 | 31 | 14 | 35 |
| CCNC(=O)c1cc2c(-c3cc(C4(O)COC4)ccc3Oc3c(C)cc(F)cc3C)cn(C)c(=O)c2[nH]1 | – | 0.0011 | 0.024 | 2.7 | 21 | 32 | 16 | 16.6 |
| Cc1cc(F)cc(C)c1Oc1ccc(C(C)(C)O)cc1-c1cn(C)c(=O)c2[nH]c(C(=O)NC3CC3)cc12 | 0.23 | 0.0005 | 0.0062 | 1.9 | 48 | 200 | 20 | 11.3 |
| CCNC(=O)c1cc2c(-c3cc(NC(C)=O)ccc3Oc3c(C)cccc3C)cn(C)c(=O)c2[nH]1 | 0.076 | 0.0005 | 0.0035 | 0.73 | 5 | 120 | 40 | 19.6 |
| CCNC(=O)c1cc2c(-c3cc(S(=O)(=O)CC)ccc3Oc3c(C)cc(F)cc3C)cn(C)c(=O)c2[nH]1 | 0.079 | 0.0013 | 0.014 | 0.81 | 10 | 55 | 28 | 61.2 |
| CCNC(=O)c1cc2c(-c3cc(S(=O)(=O)CC)ccc3-n3ccc4cccc(C)c43)cn(C)c(=O)c2[nH]1 | 0.38 | 0.0011 | 0.023 | 1.9 | 42 | 110 | 93 | 147 |
| CCNC(=O)c1cc2c(-c3cc(NS(=O)(=O)CC)ccc3Oc3c(C)cccc3C)cn(C)c(=O)c2[nH]1 | 0.017 | 0.0008 | 0.0017 | 0.3 | 11 | 79 | 880 | 2.2 |
